We go through 1 compound from BindingDB's records for doi:10.1016/j.ejmech.2016.01.043 (Yonsei University, 2016).

The target in this assay is 5-hydroxytryptamine receptor 7 (Homo sapiens, UniProt P34969). Nature of the assay: Displacement of [3H]LSD from 5-HT7 receptor (unknown origin) expressed in CHO-K1 cells by liquid scintillation counting method. On the technique in general: In a radioligand displacement assay an active substance lowers the binding of a labelled ligand.
Sequence of 5-hydroxytryptamine receptor 7 (P34969 whole entry): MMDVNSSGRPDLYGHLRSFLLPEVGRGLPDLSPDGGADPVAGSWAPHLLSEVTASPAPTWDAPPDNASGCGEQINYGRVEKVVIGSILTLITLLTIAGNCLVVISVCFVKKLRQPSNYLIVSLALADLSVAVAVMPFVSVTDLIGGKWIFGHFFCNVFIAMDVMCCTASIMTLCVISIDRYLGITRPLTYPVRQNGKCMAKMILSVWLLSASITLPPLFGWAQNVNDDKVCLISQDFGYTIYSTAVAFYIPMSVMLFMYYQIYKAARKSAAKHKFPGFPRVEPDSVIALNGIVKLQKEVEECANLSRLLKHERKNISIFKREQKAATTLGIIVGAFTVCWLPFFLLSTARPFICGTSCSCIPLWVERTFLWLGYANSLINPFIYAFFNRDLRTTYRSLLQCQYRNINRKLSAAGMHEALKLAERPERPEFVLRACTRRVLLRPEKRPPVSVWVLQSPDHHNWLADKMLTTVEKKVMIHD

A word on the Ki: it is the equilibrium dissociation constant of an inhibitor or competing ligand from its target. Read a high Ki as lower affinity. `CC1CCCN(CCCCC(=O)n2c3ccccc3c3ccccc32)C1` (stereo unspecified) returned a Ki of 794 nM.
